The results in this text go back to US10245261B2, “Substituted indol-5-ol derivatives and their therapeutic applications” (NantBioScience, Inc., priority 2013, dated 2019).

Series [1] concerns NCI 60 cancer cell line panel. The series is described as follows: NCI-60 DTP Human Tumor Cell Line Panel, SRB growth inhibition. The format is cell-based. The note with it: cell lines from the NCI 60 panel. On the procedure:
The human tumor cell lines of the cancer screening panel are grown in RPMI 1640 medium containing 5% fetal bovine serum and 2 mM L-glutamine. For a typical screening experiment, cells are inoculated into 96 well microtiter plates in 100 μL at plating densities ranging from 5,000 to 40,000 cells/well depending on the doubling time of individual cell lines. After cell inoculation, the microtiter plates are incubated at 37° C., 5% CO2, 95% air and 100% relative humidity for 24 h prior to addition of experimental drugs.
After 24 h, two plates of each cell line are fixed in situ with TCA, to represent a measurement of the cell population for each cell line at the time of drug addition (Tz). Experimental drugs are solubilized in dimethyl sulfoxide at 400-fold the desired final maximum test concentration and stored frozen prior to use. At the time of drug addition, an aliquot of frozen concentrate is thawed and diluted to twice the desired final maximum test concentration with complete medium containing 50 μg/ml gentamicin. Additional four, 10-fold or ½ log serial dilutions are made to provide a total of five drug concentrations plus control. Aliquots of 100 μl of these different drug dilutions are added to the appropriate microtiter wells already containing 100 μl of medium, resulting in the required final drug concentrations.
Following drug addition, the plates are incubated for an additional 48 h at 37° C., 5% CO2, 95% air, and 100% relative humidity. For adherent cells, the assay is terminated by the addition of cold TCA. Cells are fixed in situ by the gentle addition of 50 μl of cold 50% (w/v) TCA (final concentration, 10% TCA) and incubated for 60 minutes at 4° C. The supernatant is discarded, and the plates are washed five times with tap water and air dried. Sulforhodamine B (SRB) solution (100 μl) at 0.4% (w/v) in 1% acetic acid is added to each well, and plates are incubated for 10 minutes at room temperature. After staining, unbound dye is removed by washing five times with 1% acetic acid and the plates are air dried. Bound stain is subsequently solubilized with 10 mM trizma base, and the absorbance is read on an automated plate reader at a wavelength of 515 nm. For suspension cells, the methodology is the same except that the assay is terminated by fixing settled cells at the bottom of the wells by gently adding 50 μl of 80% TCA (final concentration, 16% TCA). Using the seven absorbance measurements [time zero, (Tz), control growth, (C), and test growth in the presence of drug at the five concentration levels (Ti)], the percentage growth is calculated at each of the drug concentrations levels. Percentage growth inhibition is calculated as: [(Ti−Tz)/(C−Tz)]×100 for concentrations for which Ti>/=Tz [(Ti−Tz)/Tz]×100 for concentrations for which Ti<Tz.
Three dose response parameters are calculated for each experimental agent.

In series [2] the test system is human MV411 human acute myelogenous leukemia (AML) xenograft. The series is described as follows: AML xenograft model in female SCID mice. The format is in vivo, mouse. On the procedure: The objective of the first study was to evaluate antitumor activities of the novel multiple-kinase inhibitor NTW-3475 against human MV411 human acute myelogenous leukemia (AML) xenograft model in female SCID mice.
Four or six animals were randomly assigned to each study group. Each animal was injected subcutaneously in the left and right flank area with 0.1 ml of 1.0×10^8 MV411 cells per mL.
Each test or control animal was placed on a 5-day on, two-day off for two cycles of vehicle negative control or 25, 50 mg/kg of NTW-3475. Tumor growth was measured with a digital hand held caliper twice weekly (once tumor emerges) prior to the first dosing and then two to three times weekly until euthanized. Animals were weighed prior to tumor cell injection, prior to dosing, two to three times weekly with tumor growth measurements, and prior to euthanasia.
The objective of the first study was to evaluate antitumor activities of the novel multiple-kinase inhibitor Compounds 11, 68, and 82 against human MV411 human acute myelogenous leukemia (AML) xenograft model in female SCID mice.
Each test or control animal was placed on a 5-day on, two-day off for two cycles of vehicle negative control or 25, 50 mg/kg of compound. Tumor growth was measured with a digital hand held caliper twice weekly (once tumor emerges) prior to the first dosing and then two to three times weekly until euthanized. Animals were weighed prior to tumor cell injection, prior to dosing, two to three times weekly with tumor growth measurements, and prior to euthanasia.

The subject of series [3] is human K562 chronic myelogenous leukemia (CML) xenograft. The series is described as follows: CML xenograft model in female SCID mice. In kind it is in vivo, mouse. On the procedure: The objective of the second study was to evaluate antitumor activities of novel multiple-kinase inhibitor NTW-3475 in human K562 chronic myelogenous leukemia (CML) xenograft model in female SCID mice.
Four to six animals were randomly assigned to study groups. Each animal was weighed, and then injected subcutaneously in the left and right flank area with 0.1 ml of 8.0×10^7 K562 cells per mL.
Each test or control animal was on a 5-day on, two-day off for two cycles treatment schedule. Tumor growth was measured with a digital hand held caliper twice weekly (once tumor emerges) prior to the first dosing and then two to three times weekly until euthanized. Animals were weighed prior to tumor cell injection, prior to dosing, two to three times weekly with tumor growth measurements, and prior to euthanasia.
This example illustrated antitumor activities of Compound 10 and 11 in human K562 chronic myelogenous leukemia (CML) xenograft model in female SCID mice.
On the appropriate days, each animal in an appropriate group will receive a specific amount of test article either at 75 or 100 mg/kg, and the dosing volume is 10 ml/kg by oral gavage as indicated. Dosing schedule will be once daily for 10 days (qd×10, 5 days on and 2 days off for 2 cycles).

The test system of series [4] is human MIAPaCa-2 pancreatic carcinoma xenograft. The series can be described thus: Pancreatic carcinoma xenograft in athymic nude mice. The format is in vivo, mouse. As to conditions: MIAPaCa-2 xenograft. Here is the method:
The objective of the third study was to evaluate antitumor activities of novel multiple-kinase inhibitor NTW-3475 in human MIAPaCa-2 pancreatic carcinoma xenograft in athymic nude-Faxn1 mice.
Four animals were randomly assigned to study groups. Each animal was weighed, and then injected subcutaneously in the left and right flank area with 0.1 ml of 5.0×10^7 MIAPaCa-2 cells per mL.
Each test or control animal was on a 5-day on, two-day off for two cycles treatment schedule with negative control vehicle, positive control Abraxane at 20 mg/kg or 25, 50 mg/kg of NTW-3475. Tumor growth was measured with a digital hand held caliper twice weekly (once tumor emerges) prior to the first dosing and then two to three times weekly until euthanized.
The objective of the third study was to evaluate antitumor activities of novel multiple-kinase inhibitor Compound 10, 11, 12, 53, 68, 82, 83, 88, and 90 in human MIAPaCa-2 pancreatic carcinoma xenograft in athymic nude-Faxn1 mice.
Each test or control animal was on a 5-day on, two-day off for three cycles treatment schedule with negative control vehicle or 40 mg/kg of Compound 10, 11, 12, 53, 68, 82, 83, 88 and 90. Tumor growth was measured with a digital hand held caliper twice weekly (once tumor emerges) prior to the first dosing and then two to three times weekly until euthanized.

Series [5] relates to TT human Thyroid carcinoma xenograft. The series is described as follows: Thyroid carcinoma xenograft. In kind it is in vivo, mouse. Here is the method: This example assesses Compound 10, 53 and 88's anti-tumor activity using a SCID mouse xenograft models for TT human Thyroid carcinoma xenograft (FIGS. 65 to 69.)
On the appropriate days, each animal in an appropriate group will receive a specific amount of Compound 10 either at 50 or 100 mg/kg, and the dosing volume is 10 ml/kg by oral gavage as indicated. Dosing schedule will be once daily for 30 days.
On the appropriate days, each animal in an appropriate group will receive a specific amount of Compound 53 either at 50 or 100 mg/kg, and the dosing volume is 10 ml/kg by oral gavage as indicated. Dosing schedule will be once daily for 30 days.
Dosing schedule will be once daily for 30 days.

Series [6] concerns AN3 human endometrial carcinoma xenograft. The series is described as follows: Endometrial carcinoma xenograft. The format is in vivo, mouse.

As for `Cc1cc2c(F)c(Oc3nc(Nc4cc(C5CC5)[nH]n4)cc(N4CCN(C)CC4)n3)cc(F)c2[nH]1` [NTW-3475], in series [1], the antiproliferative activity entry is “strong antiproliferative activity”. Besides, the anti-tumor effect result in series [2] was “strong anti-tumor effect”; in series [3], “strong anti-tumor effect”; in series [4] (nude mice, single agent), “strong anti-tumor effect”; in series [5], “anti-tumor effect”; in series [6], “anti-tumor effect”. In addition, the body weight change entry in series [2] is reported as “minimal body weight lost”. In series [4] (combination with Abraxane), the “anti-tumor effect in combination with Abraxane” value is “anti-tumor effect”.
